Reference: PMC5430874 (Scientific Reports, 2017)
Changes are numbered by the printed parent chain.

What was measured:
GPR139 W241H^6×48 = target: T1, GPR139 W241H^6×48 (Homo sapiens, UniProt Q6DWJ6, W241H); test: Fluo-4 Ca2+-assay, GPR139 mutant W241H; format: cell-based; set-up: key to Emax ± SEM: NE: no effect (loss of activity); details: for EC50: W241H mutant
T1 construct: mGluR5 signal peptide (N); expressed in transfected cells; host or cells: HEK293
T1 sequence (Q6DWJ6 2-353 W241H limits assumed): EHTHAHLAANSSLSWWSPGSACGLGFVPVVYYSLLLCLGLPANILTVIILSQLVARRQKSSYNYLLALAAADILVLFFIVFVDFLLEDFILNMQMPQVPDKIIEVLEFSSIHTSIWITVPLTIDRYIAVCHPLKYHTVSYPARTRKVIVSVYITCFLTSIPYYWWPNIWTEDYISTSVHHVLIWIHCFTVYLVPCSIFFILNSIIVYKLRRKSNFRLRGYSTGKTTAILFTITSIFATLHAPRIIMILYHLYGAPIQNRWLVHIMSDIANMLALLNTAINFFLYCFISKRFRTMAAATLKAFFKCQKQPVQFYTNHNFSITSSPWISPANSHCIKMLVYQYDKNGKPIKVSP
Source text: (§1) To study the influence of specific amino acids in the predicted binding pocket on receptor function, the desired mutations were introduced into an N-terminally c-myc-tagged wild type human GPR139 (NM_001002911.3) in the pEGFP-N1 vector (BD Biosciences)[32], [33]. As previously described, these plasmids carry the signal peptide of mGluR5 to promote cell surface expression followed by a c-myc epitope to enable detection of total and surface expression by ELISA, followed by an engineered MluI and NotI site for easy insertion of the receptor of interest. Furthermore, the start-codon in the GPR139 sequence was deleted to ensure c-myc-tagging. Mutagenesis was designed in Serial Cloner 2.6 (© Franck Perez [SerialBasics]) and carried out by GenScript (USA). All mutated residues are illustrated in Supplementary Fig. 1b. An untagged GPR139(WT) in pEGFP-N1 was also generated to ensure that the c-myc-tag had no influence on GPR139(WT) function.
(§2) All GPR139 mutants were transfected into HEK293 cells. The HEK293 cells were grown in Dulbecco’s modified Eagle’s medium (DMEM) (Gibco, 41965) supplemented with 10% dialyzed fetal bovine serum (Gibco, 26400, United States origin), 100 units/mL penicillin and 100 μg/mL streptomycin (Gibco, 15140). HEK293 cells were reverse transfected using Lipofectamine2000 (Invitrogen). More specifically two mixtures were made: 1) 10 ng DNA/well + 25 μL Opti-MEM/well and 2) […] Lipofectamine2000/well + 25 μL Opti-MEM/well. The two mixtures were mixed and 50 μL/well was added directly in black 96-well plates with flat clear bottoms for the Fluo-4 Ca^2+-assay (Corning, Falcon, 353219) or in white Opaque 96-well Microplate (PerkinElmer Life, 6005680) for ELISA. 100 μL containing 20,000 cells were added to each well and incubated 48 hours before assays. All plates were coated with poly-D-lysine.
(§3) Compound 1a (1a) was kindly provided by H. Lundbeck A/S, Denmark. […] Both compounds were dissolved to 20 mM in DMSO (Sigma, D2650) and subsequently diluted in a HEPES buffer (HBSS (Gibco, 14025) supplemented with 20 mM HEPES + 1 mM MgCl2 + 1 mM CaCl2, pH = 7.4) to a final concentration of 0.5% DMSO in the Fluo-4 Ca^2+-assay. The DMSO level was kept constant for all concentrations of both compounds. DMSO was confirmed not to have any activity by itself at this concentration. L-Trp (T0254) and L -Phe (P2126) were obtained from Sigma-Aldrich and dissolved in buffer.
(§4) The Ca^2+ measurements were preformed using the Fluo-4 NW Calcium Assay Kit (Invitrogen, Molecular Probes, F36206) as previously described. Briefly, the Fluo-4 dye loading solution was prepared according to the manufacturer’s instructions by dissolving it in HEPES-buffer supplemented with 2.5 mM probenecid. 50 μL dye loading solution was added to each well. Cells were incubated with the Fluo-4 dye for 60 min at 37 °C, then washed with 100 μL HEPES-buffer. 100 μL HEPES-buffer supplemented with 2.5 mM probenecid was then added to each well and incubated in 10 minutes at 37 °C before measurement. […] Intracellular calcium changes were recorded as indicated on either a NOVOstar (BMG Labtech) at 37 °C with an excitation filter of 485 nm and an emission filters 520 nm or a FlexStation 3 Benchtop Multi-Mode Microplate Reader (Molecular Devices) at 37 °C with an excitation wavelength of 485 nm and emission of 525 nm.
(§5) All pharmacological data have been analyzed by using Prism 6.0 (GraphPad Software Inc., San Diego). Fitting of concentration response curves was performed by non-linear regression log(agonist) vs. response (four parameters). Pooled data are shown with standard error of the mean (S.E.M.) and data showing one representative are shown with standard deviation (S.D.). Changes in potency (pEC50) and span of myc-GPR139(WT) in comparison to untagged GPR139(WT) was statistically analyzed with a paired t-test and significance was accepted at p < 0.05. The ELISA data were normalized to surface expression of myc-GPR139(WT) (100%). […]

GPR139 N271A^7×38 = target: T2, GPR139 N271A^7×38 (Homo sapiens, UniProt Q6DWJ6, N271A); test: Fluo-4 Ca2+-assay, GPR139 mutant N271A; format: cell-based; set-up: key to Emax ± SEM: NE: no effect (loss of activity); details: for EC50: N271A mutant (surface expression 53% of WT); for Change of in vitro potency: N271A mutant versus WT
T2 construct: mGluR5 signal peptide (N); expressed in transfected cells; host or cells: HEK293
T2 sequence (Q6DWJ6 2-353 N271A limits assumed): T1 sequence (Q6DWJ6 2-353 W241H limits assumed) with H240W, N270A
Source text: as §1, §2, §3, §4, §5

N[C@@H](Cc1ccccc1)C(=O)O [L-Phe, phenylalanine]
EC50 (GPR139 W241H^6×48): > 31.6 mM
Emax ± SEM (GPR139 W241H^6×48; W241H, at 30 mM, normalized to buffer (0%) and 30 mM Phe (100%) on WT): NE^##
EC50 (GPR139 N271A^7×38): > 31.6 mM
Emax at 30000 µM (GPR139 N271A^7×38; N271A, at 30 mM, normalized to buffer (0%) and 30 mM Phe (100%) on WT): 38 ± 9%

N[C@@H](Cc1c[nH]c2ccccc12)C(=O)O [L-Trp, tryptophan]
EC50 (GPR139 W241H^6×48): > 10 mM
Emax ± SEM (GPR139 W241H^6×48; W241H, at 10 mM, normalized to buffer (0%) and 10 mM Trp (100%) on WT): NE^#
EC50 (GPR139 N271A^7×38): > 10 mM
Emax at 10000 µM (GPR139 N271A^7×38; N271A, at 10 mM, normalized to buffer (0%) and 10 mM Trp (100%) on WT): 31 ± 5%

C[C@@H](NC(=O)CNC(=O)c1cccc(Cl)c1)c1ccccc1 (racemic) [Compound 7c]
Emax at 100 µM (GPR139 W241H^6×48): 12 ± 3%
EC50 (GPR139 W241H^6×48): > 0.1 mM
EC50 (GPR139 N271A^7×38): > 0.1 mM
Change of in vitro potency (GPR139 N271A^7×38): Loss of function
Emax ± SEM (GPR139 N271A^7×38; N271A, at 100 μM, normalized to buffer (0%) and 100 μM 7c (100%) on WT): NE**

COc1cc(OC)cc(C(=O)NNC(=O)Nc2cccc3ccccc23)c1 [Compound 1a]
EC50 (GPR139 W241H^6×48): > 0.00794 mM
change of potency (GPR139 W241H^6×48; W241H mutant versus WT): markedly reduced potency
Emax at 8 µM (GPR139 W241H^6×48; W241H, at 8 μM, normalized to buffer (0%) and 8 μM 1a (100%) on WT): 27 ± 10%
EC50 (GPR139 N271A^7×38): > 0.00794 mM
Change of in vitro potency (GPR139 N271A^7×38): Loss of function
Emax ± SEM (GPR139 N271A^7×38; N271A, at 8 μM, normalized to buffer (0%) and 8 μM 1a (100%) on WT): NE*
